Assays:
Test in all cases: relative viability (nuclei count vs DMSO), 5 days (fraction); higher = more cells survive
Serdemetan + Pemetrexed = compound: c1ccc2c(CCNc3ccc(Nc4ccncc4)cc3)c[nH]c2c1 [Serdemetan] + Nc1nc2[nH]cc(CCc3ccc(C(=O)N[C@@H](CCC(=O)O)C(=O)O)cc3)c2c(=O)[nH]1 [Pemetrexed] (partner 0.2 µM)
Summary of the method: (§1)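 Cells from lung cancer lines were seeded into 1536-well plates and, one day later, dosed by pin tool. Treatments were either a single drug or a fixed dose of an anchor drug with five library-drug doses (not always all listed) in √10 steps. After 5 days, nuclei were stained in a one-step fixation (final 0.05% Triton X-100, 1% formaldehyde, 1 ug/ml Hoechst) and counted on 4× images, and relative viability is the treated-to-vehicle nuclei ratio, as the median of duplicate plates.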

Serdemetan + Pictilisib = compound: c1ccc2c(CCNc3ccc(Nc4ccncc4)cc3)c[nH]c2c1 [Serdemetan] + CS(=O)(=O)N1CCN(Cc2cc3nc(-c4cccc5[nH]ncc45)nc(N4CCOCC4)c3s2)CC1 [Pictilisib] (partner 1 µM)
Summary of the method: as §1

Selisistat + Palbociclib = compound: C1CC(C2=C(C1)C3=C(N2)C=CC(=C3)Cl)C(=O)N [Selisistat] + CC(=O)c1c(C)c2cnc(Nc3ccc(N4CCNCC4)cn3)nc2n(C2CCCC2)c1=O [Palbociclib] (partner 0.5 µM)
Summary of the method: as §1

Selisistat + Alpelisib = compound: C1CC(C2=C(C1)C3=C(N2)C=CC(=C3)Cl)C(=O)N [Selisistat] + Cc1nc(NC(=O)N2CCC[C@H]2C(N)=O)sc1-c1ccnc(C(C)(C)C(F)(F)F)c1 [Alpelisib] (partner 2 µM)
Summary of the method: as §1

Row | Cell Line | relative viability (Serdemetan + Pemetrexed; first compound 0.04 µM) | relative viability (Serdemetan + Pemetrexed; first compound 0.1265 µM) | relative viability (Serdemetan + Pemetrexed; first compound 0.4 µM) | relative viability (Serdemetan + Pemetrexed; first compound 1.265 µM) | relative viability (Serdemetan + Pemetrexed; first compound 4 µM) | relative viability (Serdemetan + Pictilisib; first compound 0.04 µM) | relative viability (Serdemetan + Pictilisib; first compound 0.1265 µM) | relative viability (Serdemetan + Pictilisib; first compound 0.4 µM) | relative viability (Serdemetan + Pictilisib; first compound 1.265 µM) | relative viability (Serdemetan + Pictilisib; first compound 4 µM) | relative viability (Selisistat + Palbociclib; first compound 0.4 µM) | relative viability (Selisistat + Palbociclib; first compound 1.265 µM) | relative viability (Selisistat + Palbociclib; first compound 4 µM) | relative viability (Selisistat + Palbociclib; first compound 12.65 µM) | relative viability (Selisistat + Palbociclib; first compound 40 µM) | relative viability (Selisistat + Alpelisib; first compound 0.4 µM) | relative viability (Selisistat + Alpelisib; first compound 1.265 µM) | relative viability (Selisistat + Alpelisib; first compound 12.65 µM) | relative viability (Selisistat + Alpelisib; first compound 40 µM) | relative viability (Selisistat + Alpelisib; first compound 4 µM)
1 | HCC-15 | 0.216 | 0.195 | 0.215 | 0.226 | 0.213 | 0.753 | 0.821 | 0.708 | 0.567 | 0.638 | 0.755 | 0.854 | 0.586 | 0.748 | 0.885 | 1.04 | 0.9 | 0.775 | 0.878 | –
2 | HCC-44 | 0.62 | 0.621 | 0.577 | 0.574 | 0.644 | 0.513 | 0.668 | 0.501 | 0.481 | 0.689 | 1.05 | 0.975 | 1.07 | 0.994 | 1.06 | 0.86 | 0.874 | 0.846 | 0.9 | 0.853
3 | COR-L23 | 0.206 | 0.208 | 0.213 | 0.192 | 0.186 | 0.665 | 0.767 | 0.785 | 0.598 | 0.752 | 0.372 | 0.296 | 0.332 | 0.305 | 0.296 | 0.921 | 0.872 | 0.767 | 0.766 | 0.793
4 | HCC-78 | 0.93 | 0.879 | 0.903 | 0.917 | 0.915 | 0.207 | 0.201 | 0.155 | 0.192 | 0.245 | 0.488 | 0.461 | 0.435 | 0.476 | 0.473 | 0.439 | 0.367 | 0.34 | 0.278 | 0.349
5 | NCI-H2087 | 0.704 | 0.611 | 0.643 | 0.404 | 0.28 | 0.961 | 0.966 | 0.814 | 0.493 | 0.422 | 0.224 | 0.278 | – | 0.261 | 0.287 | 1.33 | 0.933 | 0.971 | 1.04 | 1
6 | BEN | 0.717 | 0.614 | 0.849 | 0.955 | 0.634 | 0.57 | 0.529 | 0.565 | 0.535 | 0.496 | 0.467 | 0.502 | 0.486 | 0.448 | 0.459 | 0.953 | 0.986 | 0.9 | 0.884 | 0.818
7 | LCLC-103H | 0.447 | 0.49 | 0.481 | 0.386 | 0.454 | 0.629 | 0.665 | 0.619 | 0.594 | 0.611 | 0.3 | 0.509 | 0.452 | 0.435 | 0.558 | 1.03 | 0.963 | 0.92 | 0.94 | 0.99
8 | EKVX | 0.335 | 0.401 | – | – | 0.376 | 0.532 | 0.414 | 0.352 | 0.441 | 0.425 | 0.364 | 0.351 | 0.329 | 0.376 | 0.353 | 0.949 | 0.855 | 0.853 | 0.878 | 0.723
9 | LXF-289 | 0.894 | 0.989 | 0.86 | 0.76 | 0.795 | 0.792 | 0.783 | 0.662 | 0.701 | 0.707 | 0.628 | 0.639 | 0.55 | 0.557 | 0.619 | 1.13 | 1.04 | 1 | 0.984 | 0.989
10 | NCI-H650 | 0.895 | 0.903 | 0.992 | 0.812 | 0.87 | 0.743 | 0.778 | 0.977 | 0.793 | 0.746 | 0.379 | 0.319 | 0.443 | 0.387 | 0.339 | 1.38 | – | 1.06 | 1.15 | 1.47
11 | NCI-H2085 | 0.91 | 0.818 | 0.773 | 0.798 | 0.642 | 0.486 | 0.516 | 0.483 | 0.357 | 0.438 | 0.486 | 0.476 | 0.433 | 0.522 | 0.496 | 1.04 | 0.983 | 1.06 | 0.919 | 0.968
12 | NCI-H1793 | 0.864 | 0.831 | 0.616 | 0.419 | 0.431 | 0.302 | 0.415 | 0.31 | 0.163 | 0.199 | 0.338 | 0.304 | – | 0.34 | 0.328 | 0.859 | 0.625 | 0.958 | 0.834 | –
13 | LC-2-ad | 0.255 | 0.231 | 0.269 | 0.255 | 0.267 | 0.42 | 0.445 | 0.431 | – | 0.417 | 0.508 | 0.49 | 0.498 | 0.502 | 0.555 | 1.02 | 0.853 | 0.848 | 0.901 | 0.89
14 | COR-L 105 | 1.06 | 0.991 | 0.948 | 1.14 | 0.967 | 0.366 | 0.486 | 0.322 | 0.427 | 0.37 | 0.427 | 0.378 | 0.397 | 0.419 | 0.437 | 0.888 | 0.929 | 0.964 | 0.846 | 1.03
15 | NCI-H1355 | 1.07 | 1.02 | 0.949 | 1.05 | 0.954 | 0.456 | 0.491 | 0.405 | 0.445 | 0.435 | 0.432 | 0.401 | 0.389 | 0.438 | 0.437 | 0.936 | 0.874 | 0.862 | 1.05 | –
16 | H3255 | 0.594 | 0.462 | 0.541 | 0.539 | 0.572 | 0.5 | 0.403 | 0.423 | 0.497 | 0.435 | 0.348 | 0.295 | 0.33 | 0.303 | 0.32 | 0.724 | 0.662 | 0.62 | 0.786 | 0.725
17 | NCI-H1993 | 0.577 | 0.581 | 0.591 | 0.589 | 0.546 | 0.815 | 0.884 | 0.809 | – | 0.761 | 0.703 | 0.67 | – | 0.623 | 0.676 | 0.575 | 0.67 | 0.775 | 0.721 | –

— the supplement of paper PMC10307832
